Test results reported in patent US20060188866A1, “Diaminophenothiazine compositions and uses thereof” (Children's Hospital Oakland Research Institute, priority 2005, published 2006).

Legend:
[1] = 300 mg/day for one year; cited from earlier work
[2] = rats; injected 1 mg/kg; cited from earlier work
mitochondrial complex IV = test: Level of mitochondrial complex IV in IMR90 cells (subunit II antibody, western blotting)
IMR90 cells [3] = test: Replicative life span of IMR90 cells (population doubling level)
[4] = 65 mg three times a day; cited from earlier work
IMR90 cells [5] = test: H2O2-induced senescence of methylene blue-treated IMR90 cells; type: cell-based, human; details: continuous 100 nM; 10 μM H2O2
Protocol: In another experiment, the effect of hydrogen peroxide (H2O2) on senescence of methylene blue-treated cells was tested. IMR90 cells were seeded at an initial density of 0.5×10^6/dish and grown for two weeks in the presence of methylene blue prior to H2O2 treatment. Thereafter, cells were harvested weekly, counted, and seeded with or without methylene blue and/or 10 μM H2O2. Cells that were treated with hydrogen peroxide without methylene blue treatment had accelerated senescence. The H2O2-induced senescence was prevented when these cells were continuously treated with 100 nM methylene blue.

CN(C)c1ccc2nc3ccc(=[N+](C)C)cc-3sc2c1 [methylene blue]
depression compared with 15 mg/day placebo [1]: significantly less depressed | brain oxidative metabolism [2]: improved | memory retention [2]: improved | effect on complex IV (mitochondrial complex IV; 1000 nM, IMR90 cells): caused removal of complex IV from the mitochondria | increase in level of complex IV above age-matched controls (mitochondrial complex IV; IMR90 cells): approximately 30% | increase in PDL (IMR90 cells [3]; IMR90 cells seeded in 5% oxygen): 10-15 | delay of senescence (IMR90 cells [3]; IMR90 cells seeded in air): 25-30 population doublings | optimal concentration for delaying senescence (IMR90 cells [3]; IMR90 cells seeded in air): 10 to 100 nM | management of chronic renal calculous disease [4]: useful | H2O2-induced senescence (IMR90 cells [5]): prevented

Nc1ccc2nc3ccc(N)cc3[s+]c2c1 [thionine]
effect on level of complex IV (mitochondrial complex IV; IMR90 cells after treatment): increase in complex IV | effect on senescence (replicative life span) (IMR90 cells [3]; 100 nM, IMR90 cells): effective
